Experimental data taken from ChEMBL document CHEMBL4673231, “Novel isoniazid embedded triazole derivatives: Synthesis, antitubercular and antimicrobial activity evaluation” (Bioorg Med Chem Lett, 2020).
In brackets after ≈: the same amount, converted by molar mass. Activity calls are given as the source filed them. The calls are words filed in the database; no cut-off is given here.

tested on: Saccharomyces cerevisiae; assay: Antifungal activity against Saccharomyces cerevisiae assessed as diameter of inhibition zone at 1 mg/ml incubated for 24 hrs by agar well diffusion assay; type: functional; settings: read-out: DIZ

| Structure (SMILES) | zone of inhibition at 1000 µg/mL |
| --- | --- |
| COc1ccccc1-n1cc(COc2ccc([N+](=O)[O-])cc2/C=N/NC(=O)c2ccncc2)nn1 | 10 mm |
| Cc1ccccc1-n1cc(COc2ccc([N+](=O)[O-])cc2/C=N/NC(=O)c2ccncc2)nn1 | 12 mm |
| O=C(N/N=C/c1cc([N+](=O)[O-])ccc1OCc1cn(-c2cccc(Cl)c2)nn1)c1ccncc1 | 10 mm |
| O=C(N/N=C/c1cc([N+](=O)[O-])ccc1OCc1cn(-c2ccccc2Cl)nn1)c1ccncc1 | 12 mm |

tested on: Bacillus subtilis; assay: Antibacterial activity against Bacillus subtilis assessed as diameter of inhibition zone at 1 mg/ml incubated for 24 hrs by agar well diffusion assay; type: functional; settings: read-out: DIZ

| Structure (SMILES) | zone of inhibition at 1000 µg/mL |
| --- | --- |
| COc1ccccc1-n1cc(COc2ccc([N+](=O)[O-])cc2/C=N/NC(=O)c2ccncc2)nn1 | 12 mm |
| Cc1ccccc1-n1cc(COc2ccc([N+](=O)[O-])cc2/C=N/NC(=O)c2ccncc2)nn1 | 11 mm |
| O=C(N/N=C/c1cc([N+](=O)[O-])ccc1OCc1cn(-c2cccc(Cl)c2)nn1)c1ccncc1 | 11 mm |
| O=C(N/N=C/c1cc([N+](=O)[O-])ccc1OCc1cn(-c2ccccc2Cl)nn1)c1ccncc1 | 9 mm |

tested on: Pseudomonas aeruginosa; assay: Antibacterial activity against Pseudomonas aeruginosa assessed as diameter of inhibition zone at 1 mg/ml incubated for 24 hrs by agar well diffusion assay; type: functional; settings: not given

| Structure (SMILES) | diameter of the inhibition zone (DIZ) |
| --- | --- |
| O=C(N/N=C/c1cc([N+](=O)[O-])ccc1OCc1cn(-c2ccccc2Cl)nn1)c1ccncc1 | inactive |

same assay, conditions: read-out: DIZ

| Structure (SMILES) | zone of inhibition at 1000 µg/mL |
| --- | --- |
| COc1ccccc1-n1cc(COc2ccc([N+](=O)[O-])cc2/C=N/NC(=O)c2ccncc2)nn1 | 8 mm |
| Cc1ccccc1-n1cc(COc2ccc([N+](=O)[O-])cc2/C=N/NC(=O)c2ccncc2)nn1 | 10 mm |
| O=C(N/N=C/c1cc([N+](=O)[O-])ccc1OCc1cn(-c2cccc(Cl)c2)nn1)c1ccncc1 | 8 mm |

tested on: Salmonella typhi; assay: Antibacterial activity against Salmonella typhi ATCC 9207 by CLSI method; type: functional, Salmonella enterica subsp. enterica serovar Typhi; settings: Salmonella enterica

| Structure (SMILES) | MIC |
| --- | --- |
| COc1ccccc1-n1cc(COc2ccc([N+](=O)[O-])cc2/C=N/NC(=O)c2ccncc2)nn1 | 230 µg/mL (≈ 486 µM) |
| Cc1ccccc1-n1cc(COc2ccc([N+](=O)[O-])cc2/C=N/NC(=O)c2ccncc2)nn1 | 270 µg/mL (≈ 590 µM) |
| O=C(N/N=C/c1cc([N+](=O)[O-])ccc1OCc1cn(-c2cccc(Cl)c2)nn1)c1ccncc1 | 140 µg/mL (≈ 293 µM) |
| O=C(N/N=C/c1cc([N+](=O)[O-])ccc1OCc1cn(-c2ccccc2Cl)nn1)c1ccncc1 | 170 µg/mL (≈ 356 µM) |

tested on: Klebsiella aerogenes; assay: Antibacterial activity against Enterobacter aerogenes ATCC 13048 by CLSI method; type: functional; settings: not given

| Structure (SMILES) | MIC |
| --- | --- |
| COc1ccccc1-n1cc(COc2ccc([N+](=O)[O-])cc2/C=N/NC(=O)c2ccncc2)nn1 | 370 µg/mL (≈ 781 µM) |
| Cc1ccccc1-n1cc(COc2ccc([N+](=O)[O-])cc2/C=N/NC(=O)c2ccncc2)nn1 | 190 µg/mL (≈ 415 µM) |
| O=C(N/N=C/c1cc([N+](=O)[O-])ccc1OCc1cn(-c2cccc(Cl)c2)nn1)c1ccncc1 | 260 µg/mL (≈ 544 µM) |
| O=C(N/N=C/c1cc([N+](=O)[O-])ccc1OCc1cn(-c2ccccc2Cl)nn1)c1ccncc1 | 130 µg/mL (≈ 272 µM) |

tested on: Aspergillus niger; assay: Antifungal activity against Aspergillus niger assessed as diameter of inhibition zone at 1 mg/ml incubated for 24 hrs by agar well diffusion assay; type: functional; settings: read-out: DIZ

| Structure (SMILES) | zone of inhibition at 1000 µg/mL |
| --- | --- |
| COc1ccccc1-n1cc(COc2ccc([N+](=O)[O-])cc2/C=N/NC(=O)c2ccncc2)nn1 | 10 mm |
| Cc1ccccc1-n1cc(COc2ccc([N+](=O)[O-])cc2/C=N/NC(=O)c2ccncc2)nn1 | 9 mm |
| O=C(N/N=C/c1cc([N+](=O)[O-])ccc1OCc1cn(-c2cccc(Cl)c2)nn1)c1ccncc1 | 9 mm |
| O=C(N/N=C/c1cc([N+](=O)[O-])ccc1OCc1cn(-c2ccccc2Cl)nn1)c1ccncc1 | 10 mm |

tested on: Salmonella typhi; assay: Antibacterial activity against Salmonella typhi assessed as diameter of inhibition zone at 1 mg/ml incubated for 24 hrs by agar well diffusion assay; type: functional, Salmonella enterica subsp. enterica serovar Typhi; settings: Salmonella enterica, read-out: DIZ

| Structure (SMILES) | zone of inhibition at 1000 µg/mL |
| --- | --- |
| COc1ccccc1-n1cc(COc2ccc([N+](=O)[O-])cc2/C=N/NC(=O)c2ccncc2)nn1 | 11 mm |
| Cc1ccccc1-n1cc(COc2ccc([N+](=O)[O-])cc2/C=N/NC(=O)c2ccncc2)nn1 | 11 mm |
| O=C(N/N=C/c1cc([N+](=O)[O-])ccc1OCc1cn(-c2ccccc2Cl)nn1)c1ccncc1 | 10 mm |

tested on: Klebsiella aerogenes; assay: Antibacterial activity against Enterobacter aerogenes assessed as diameter of inhibition zone at 1 mg/ml incubated for 24 hrs by agar well diffusion assay; type: functional; settings: read-out: DIZ

| Structure (SMILES) | zone of inhibition at 1000 µg/mL |
| --- | --- |
| COc1ccccc1-n1cc(COc2ccc([N+](=O)[O-])cc2/C=N/NC(=O)c2ccncc2)nn1 | 12 mm |
| Cc1ccccc1-n1cc(COc2ccc([N+](=O)[O-])cc2/C=N/NC(=O)c2ccncc2)nn1 | 10 mm |
| O=C(N/N=C/c1cc([N+](=O)[O-])ccc1OCc1cn(-c2cccc(Cl)c2)nn1)c1ccncc1 | 13 mm |
| O=C(N/N=C/c1cc([N+](=O)[O-])ccc1OCc1cn(-c2ccccc2Cl)nn1)c1ccncc1 | 10 mm |

tested on: Staphylococcus aureus; assay: Antibacterial activity against Staphylococcus aureus ATCC 6538 by CLSI method; type: functional; settings: not given

| Structure (SMILES) | MIC |
| --- | --- |
| COc1ccccc1-n1cc(COc2ccc([N+](=O)[O-])cc2/C=N/NC(=O)c2ccncc2)nn1 | 450 µg/mL (≈ 950 µM) |
| Cc1ccccc1-n1cc(COc2ccc([N+](=O)[O-])cc2/C=N/NC(=O)c2ccncc2)nn1 | 310 µg/mL (≈ 678 µM) |
| O=C(N/N=C/c1cc([N+](=O)[O-])ccc1OCc1cn(-c2cccc(Cl)c2)nn1)c1ccncc1 | 220 µg/mL (≈ 460 µM) |
| O=C(N/N=C/c1cc([N+](=O)[O-])ccc1OCc1cn(-c2ccccc2Cl)nn1)c1ccncc1 | 200 µg/mL (≈ 419 µM) |

tested on: Staphylococcus aureus; assay: Antibacterial activity against Staphylococcus aureus assessed as diameter of inhibition zone at 1 mg/ml incubated for 24 hrs by agar well diffusion assay; type: functional; settings: read-out: DIZ

| Structure (SMILES) | zone of inhibition at 1000 µg/mL |
| --- | --- |
| COc1ccccc1-n1cc(COc2ccc([N+](=O)[O-])cc2/C=N/NC(=O)c2ccncc2)nn1 | 12 mm |
| Cc1ccccc1-n1cc(COc2ccc([N+](=O)[O-])cc2/C=N/NC(=O)c2ccncc2)nn1 | 13 mm |
| O=C(N/N=C/c1cc([N+](=O)[O-])ccc1OCc1cn(-c2cccc(Cl)c2)nn1)c1ccncc1 | 15 mm |
| O=C(N/N=C/c1cc([N+](=O)[O-])ccc1OCc1cn(-c2ccccc2Cl)nn1)c1ccncc1 | 12 mm |

tested on: not listed separately; assay: Cytotoxicity against mouse RAW264.7 cells assessed as reduction in cell viability at 25 ug/ml incubated for 48 hrs by MTT assay; type: cell-based; settings: at 25 µg/mL, read-out: INH

| Structure (SMILES) | cytotoxicity at 48 h, 25 ug/ml |
| --- | --- |
| Cc1ccccc1-n1cc(COc2ccc([N+](=O)[O-])cc2/C=N/NC(=O)c2ccncc2)nn1 | 24.2% |
| O=C(N/N=C/c1cc([N+](=O)[O-])ccc1OCc1cn(-c2cccc(Cl)c2)nn1)c1ccncc1 | 20.1% |
| O=C(N/N=C/c1cc([N+](=O)[O-])ccc1OCc1cn(-c2ccccc2Cl)nn1)c1ccncc1 | 24.2% |

tested on: Escherichia coli; assay: Antibacterial activity against Escherichia coli assessed as diameter of inhibition zone at 1 mg/ml incubated for 24 hrs by agar well diffusion assay; type: functional; settings: not given

| Structure (SMILES) | diameter of the inhibition zone (DIZ) |
| --- | --- |
| Cc1ccccc1-n1cc(COc2ccc([N+](=O)[O-])cc2/C=N/NC(=O)c2ccncc2)nn1 | inactive |

same assay, conditions: read-out: DIZ

| Structure (SMILES) | zone of inhibition at 1000 µg/mL |
| --- | --- |
| COc1ccccc1-n1cc(COc2ccc([N+](=O)[O-])cc2/C=N/NC(=O)c2ccncc2)nn1 | 11 mm |
| O=C(N/N=C/c1cc([N+](=O)[O-])ccc1OCc1cn(-c2cccc(Cl)c2)nn1)c1ccncc1 | 10 mm |
| O=C(N/N=C/c1cc([N+](=O)[O-])ccc1OCc1cn(-c2ccccc2Cl)nn1)c1ccncc1 | 12 mm |

tested on: Mycobacterium tuberculosis; assay: Antimycobacterial activity against Mycobacterium tuberculosis H37Rv assessed as reduction in microbial growth incubated for 7 days by alamar blue assay; type: functional; settings: 168 h, time 7 day

| Structure (SMILES) | MIC |
| --- | --- |
| COc1ccccc1-n1cc(COc2ccc([N+](=O)[O-])cc2/C=N/NC(=O)c2ccncc2)nn1 | > 25 µg/mL |
| Cc1ccccc1-n1cc(COc2ccc([N+](=O)[O-])cc2/C=N/NC(=O)c2ccncc2)nn1 | 1.56 µg/mL |
| O=C(N/N=C/c1cc([N+](=O)[O-])ccc1OCc1cn(-c2cccc(Cl)c2)nn1)c1ccncc1 | 12.5 µg/mL |
| O=C(N/N=C/c1cc([N+](=O)[O-])ccc1OCc1cn(-c2ccccc2Cl)nn1)c1ccncc1 | 1.56 µg/mL |

tested on: Bacillus cereus; assay: Antibacterial activity against Bacillus cereus assessed as diameter of inhibition zone at 1 mg/ml incubated for 24 hrs by agar well diffusion assay; type: functional; settings: read-out: DIZ

| Structure (SMILES) | zone of inhibition at 1000 µg/mL |
| --- | --- |
| COc1ccccc1-n1cc(COc2ccc([N+](=O)[O-])cc2/C=N/NC(=O)c2ccncc2)nn1 | 12 mm |
| Cc1ccccc1-n1cc(COc2ccc([N+](=O)[O-])cc2/C=N/NC(=O)c2ccncc2)nn1 | 12 mm |
| O=C(N/N=C/c1cc([N+](=O)[O-])ccc1OCc1cn(-c2cccc(Cl)c2)nn1)c1ccncc1 | 10 mm |
| O=C(N/N=C/c1cc([N+](=O)[O-])ccc1OCc1cn(-c2ccccc2Cl)nn1)c1ccncc1 | 11 mm |

tested on: Salmonella enterica subsp. enterica serovar Abony; assay: Antibacterial activity against Salmonella enterica subsp. enterica serovar Abony assessed as diameter of inhibition zone at 1 mg/ml incubated for 24 hrs by agar well diffusion assay; type: functional; settings: not given

| Structure (SMILES) | diameter of the inhibition zone (DIZ) |
| --- | --- |
| O=C(N/N=C/c1cc([N+](=O)[O-])ccc1OCc1cn(-c2ccccc2Cl)nn1)c1ccncc1 | inactive |

same assay, conditions: read-out: DIZ

| Structure (SMILES) | zone of inhibition at 1000 µg/mL |
| --- | --- |
| COc1ccccc1-n1cc(COc2ccc([N+](=O)[O-])cc2/C=N/NC(=O)c2ccncc2)nn1 | 8 mm |
| Cc1ccccc1-n1cc(COc2ccc([N+](=O)[O-])cc2/C=N/NC(=O)c2ccncc2)nn1 | 12 mm |
| O=C(N/N=C/c1cc([N+](=O)[O-])ccc1OCc1cn(-c2cccc(Cl)c2)nn1)c1ccncc1 | 10 mm |

tested on: Shigella boydii; assay: Antibacterial activity against Shigella boydii assessed as diameter of inhibition zone at 1 mg/ml incubated for 24 hrs by agar well diffusion assay; type: functional; settings: read-out: DIZ

| Structure (SMILES) | zone of inhibition at 1000 µg/mL |
| --- | --- |
| COc1ccccc1-n1cc(COc2ccc([N+](=O)[O-])cc2/C=N/NC(=O)c2ccncc2)nn1 | 13 mm |
| Cc1ccccc1-n1cc(COc2ccc([N+](=O)[O-])cc2/C=N/NC(=O)c2ccncc2)nn1 | 14 mm |
| O=C(N/N=C/c1cc([N+](=O)[O-])ccc1OCc1cn(-c2cccc(Cl)c2)nn1)c1ccncc1 | 12 mm |
| O=C(N/N=C/c1cc([N+](=O)[O-])ccc1OCc1cn(-c2ccccc2Cl)nn1)c1ccncc1 | 7 mm |
